In patent publication US20160228444A1, “NUCLEOSIDE ANALOGS AND USES THEREOF” (Ramot at Tel-Aviv University Ltd., priority 2015, published 2016):
Where two headings read alike, the source gives them in different places.

Columns and labels:
HO-1 = HO-1 protein and mRNA in tumor and heart of xenograft mice (Western blot, qRT-PCR); format: in vivo; conditions: heart
Description: (§1) Tumors and hearts of the mice were rapidly removed, frozen on dry ice and kept at −70° C. Tissue was then homogenized and RNA and proteins extracted using the NucleoSpin® RNA/Protein kit according to the manufacturer's protocol (Macherey-Nagel, GmbH & Co KG).
(§2) Total RNA ([…]) was primed by oligo dT and reverse-transcribed by Verso cDNA kit according to the manufacturer's protocol (Thermo Scientific). Analyses of qPCR were performed with Kapa Sybr® Fast (Kapa Biosystems) on a Step One Plus thermocycler (Applied Biosystems). The comparative threshold method was used to calculate the relative gene expression. Values were normalized against glyceraldehyde 3-phosphate dehydrogenase (GAPDH). Expression of the GAPDH mRNA in each individual sample was used to normalize the dataset. The sequences of the primers were as follows: […]
(§3) Protein levels in the samples were determined with the BCA protein assay kit (Pierce). The samples were subjected to Western blot analyses. The expression of proteins was visualized using their specified primary antibodies followed by the secondary IgG IRDye® 680DX antibody. Each detected band was quantified using the Odyssey Infrared Imaging System (LI-COR Biosciences) and normalized to the level of actin. The fold increase of a specific protein was determined by the ratio of the band intensity obtained from treated and untreated samples.
The effect of the drugs on the expression of genes associated with cell survival and death was examined by following changes in transcription and protein expression in tissue samples taken from the mice with glioblastoma xenografts. Heme oxygenase (HO-1) is known to play a protective role in the heart, whereas, in many cancers it is expressed and promotes growth and survival of neoplastic cells.

bFGF = bFGF protein and mRNA in tumor and heart of xenograft mice (Western blot, qRT-PCR); format: in vivo; conditions: for expression of mouse bFGF protein in the heart: FIG. 4D; for expression of bFGF in tumors / bFGF mRNA in the tumor: tumor; for bFGF mRNA in the tumor: FIG. 6
Description: as §1, §2, §3
(§4) The pro-angiogenic factors basic fibroblast growth factor (bFGF) and vascular endothelial growth factor (VEGF) are potent angiogenic stimulators. The expression of bFGF in the tumor and in the heart was evaluated by Western blot and qRT-PCR analyses and expression of VEGF by IHC.

VEGF = VEGF immunohistochemistry in tumor and heart of xenograft mice; format: in vivo; conditions: FIG. 4F
Description: as §4

c-Myc = c-Myc and p-c-Myc (Thr 58) Western blot in tumor and heart of xenograft mice; format: in vivo
Description: as §3
The c-Myc protein is an important regulator of normal cell physiology and in tumor cells it plays an important role in activating oncogenic pathways [Soucek & Evan, Curr Opin Genet Dev 2010, 20:91-95].

[1] = system: U251 human glioblastoma xenograft; assay: Glioblastoma xenograft model (survival, body weight, tumor volume, tumor weight, Ki-67); conditions: for tumor volume of vehicle-treated group relative to treated group: from day 11, FIG. 3C
Description: Xenograft of glioblastoma: 8- to 10-week-old male Hsd athymic FOXN (Harlan, Jerusalem, Israel) were inoculated sc in the flanks with 5×10^6 U251 cells. Tumor length (L) and width (W) were measured with a caliper twice weekly. Tumor volumes were calculated according to the formula: (L×W2)/2. When the tumor was established (volume of 50-100 mm^3) the mice were randomly divided into six groups treated with: vehicle control (saline); ip Dox 4 mg/kg once weekly; po AN446 25 mg/kg thrice a week; po AN7 50 mg/kg thrice a week; combination of AN446+Dox (4 mg/kg ip Dox once a week and 25 mg/kg po AN446 thrice a week); AN7+Dox (4 mg/kg ip Dox once a week and 50 mg/kg po AN7 thrice weekly). Untreated, non-bearing tumor naive mice were maintained under the same conditions. The experiment was terminated after 25 treatment days, the mice were sacrificed under CO2 and their tumors and hearts were removed, weighed and divided into parts dedicated for immunohistochemistry (IHC) and the rest were frozen (−80° C.) for Western blot and Quantitative PCR (qRT-PCR) analyses.
Inactivation of avidin-biotin nonspecific binding was prevented by a blocking kit, according to the manufacturer's protocol (Vector Laboratories). […] The secondary antibody was biotin conjugated goat anti-rabbit or anti-mouse IgG. Slides were then stained with the ABC peroxidase system, developed with diaminobenzidine (DAB) (Vector Laboratories) and counterstained with hematoxylin (Bio-Optica, Milano, Italy). The slides were examined using an Olympus BX 52 light microscope, and images were taken with an Olympus DP50 digital camera system.
Mice were implanted subcutaneously with U251 cells and when the tumors reached 50-100 mm^3 treatments were initiated. Survival was evaluated by the Kaplan-Meier end-product analysis, where treatment failure (the experimental end points) was a loss of ˜20% body weight, or a tumor volume of >1 cm^3.

TLR4 [2] = assay: TLR4 gene expression in MDA-MB-231 cells (qRT-PCR); format: cell-based, human; conditions: single agent, FIG. 7C
Description: (§5) The effect of AN446 on inflammation-associated pathways was evaluated in the monocytic THP1 cell line and in the MDA-MB-231 breast carcinoma cell line. Supernatants of treated THP1 cells were collected and IL-6, IL-10 and TNF-α concentrations were quantified by ELISA (R&D systems). TLR4 expression in THP1 cells was assessed using fluorescent anti-TLR4 antibodies and FACS analysis. In addition, gene expression for MCP-1, TNF-α and TLR4 in MDA-MB-231 was evaluated by qRT-PCT, following treatment with AN446 and/or paclitaxel.

MCP-1 = MCP-1 gene expression in MDA-MB-231 cells (qRT-PCR); format: cell-based, human; conditions: single agent, FIG. 7C
Description: as §5

TNF-α = TNF-α gene expression in MDA-MB-231 cells (qRT-PCR); format: cell-based, human; conditions: single agent, FIG. 7C
Description: as §5

MDA-231 cells = assay: Median-effect drug interaction, Hoechst viability, 72 h; format: cell-based, human; conditions: for IC50: Homo sapiens
Description: (§6) The ratios of the drug combination were based on the ratio of their IC50 of each drug alone. Cell viability was determined by MTT assay, as described hereinabove. The drugs were added to the cells and incubated for 72 h.
(§7) Drug interaction in adherent cells was evaluated as above except that the viability was determined by Hoechst assay.

[3] = system: NCI-N87 gastric carcinoma cells; assay: as above; format: cell-based, human; conditions: Homo sapiens
Description: as §6, §7

T47D cells = assay: as above; format: cell-based, human; conditions: for IC50: Homo sapiens
Description: as §6, §7

TLR4 [4] = conditions: 24 hours, concentrations based on the IC50, FIG. 15
U251 cells = assay: Hoechst viability assay 72 h / median-effect combination study; conditions: Homo sapiens, U-251, 72 h, read-out: IC50 value for viability in U251 cells after 72 hours
Description: Hoechst assay: 22RV-1, MCF-7, MCF-7DX, 4T1, U251, and T47D cells (3×10^3 cells/well) and NCI-N87 (8×10^3 cells/well) were seeded in tissue culture in growth medium for 24 h in 96-well plates (in triplicate) and then exposed to different concentrations (titration) of the tested drug for 72 h at 37° C. The plates were then rinsed with PBS and fixed with 100 ml of 70% ethanol for 30 min. […] The fluorescence was measured (excitation at 390 nm and emission at 460 nm) with a Synergy III Fluorometer-Elisa reader (BioTek Instruments, Inc. Germany).
The Median Effect Analysis (MEA) for a constant combination ratio was used for drugs interaction and the combination index (CI) determination.
The average values of three independent experiments were calculated and analyzed with CalcuSyn software.

SMILES: CCCC(=O)OCOP(=O)(OCC)OCC [AN7, butyroxymethyl diethylphosphate]
- HO-1 expression in the heart (HO-1; co-treatment with Dox): increased the expression of this enzyme to a significantly higher level
- HO-1 mRNA in the heart, elevation of basal expression level (HO-1; co-treatment with Dox): 1.76±0.36 fold
- HO-1 expression in the heart (decrease) (HO-1; single agent, FIGS. 4D, 4E): did not significantly change
- expression of mouse bFGF protein in the heart (bFGF; co-treatment with Dox): significantly increased its expression to a level higher than that observed in naive or vehicle-treated mice
- expression of mouse bFGF protein in the heart (bFGF; single agent): unchanged
- expression of bFGF in tumors (bFGF; combination with Dox): further diminished
- bFGF mRNA in the tumor (bFGF; combined treatment with Dox): suppressed it significantly further
- bFGF mRNA in the tumor (bFGF; single agent): significantly reduced the bFGF mRNA
- expression of bFGF in tumors (bFGF; single agent, FIGS. 4A, 4B): decreased significantly
- VEGF expression in the heart (VEGF): elevated
- c-Myc protein expression in the hearts (c-Myc; heart, FIG. 5B): not affected
- c-Myc protein expression in tumors (c-Myc; tumor, FIG. 5A): decreased dramatically
- survival of mice when added to Dox treatment ([1]; added to Dox 4 mg/kg ip once a week, day 25, FIG. 3A): 100%
- body weight loss when added to Dox treatment ([1]; added to Dox 4 mg/kg, FIG. 3B): significant attenuation of body weight loss
- Ki-67 positive (proliferating) cells in tumors ([1]; in combination with Dox, FIG. 3F): reduced the proliferating cells to a level significantly lower than any of the single drug treatments
- tumor volume of vehicle-treated group relative to treated group ([1]; in combination with Dox): 3 fold
- Ki-67 positive cells in tumors ([1]; single agent vs vehicle, FIGS. 3E, 3F): considerably more Ki-67 positive cells were detected in tumors of the vehicle-treated mice
- tumor volume of vehicle-treated group relative to treated group ([1]; single agent): 2 fold
- survival of mice until end of experiment (day 25) ([1]; single agent: AN446 25 mg/kg or AN7 50 mg/kg po thrice weekly, Dox 4 mg/kg ip once a week, FIG. 3A): 100%

SMILES: CC(=O)O[C@H]1C(=O)[C@@]2(C)[C@H]([C@H](OC(=O)c3ccccc3)[C@]3(O)C[C@H](OC(=O)[C@H](O)[C@@H](NC(=O)c4ccccc4)c4ccccc4)C(C)=C1C3(C)C)[C@]1(OC(C)=O)CO[C@@H]1C[C@@H]2O [Paclitaxel, paclitaxel]
- expression of TLR4 (TLR4 [2]): paclitaxel-induced increase
- expression of MCP-1 (MCP-1): paclitaxel-induced increase
- expression of TNF-α (TNF-α): paclitaxel-induced increase
- IC50 (MDA-231 cells; MDA-MB-231, MDA-231, paclitaxel in combination with AN446, read-out: Paclitaxel com IC50): 0.0017 ± 1e-05 µM
- IC50 (MDA-231 cells; MDA-MB-231, MDA-231, paclitaxel in combination with SAHA, read-out: Paclitaxel com IC50): 0.0015 µM
- IC50 (MDA-231 cells; MDA-MB-231, MDA-231, paclitaxel in combination with valproic acid, read-out: Paclitaxel com IC50): 0.0016 ± 1e-05 µM
- IC50 (MDA-231 cells; MDA-MB-231, MDA-231, single agent, read-out: Paclitaxel IC50): 0.0044 ± 0.0002 µM
- IC50 ([3]; NCI-N87, paclitaxel in combination with AN446, read-out: Paclitaxel com IC50): 0.0018 ± 0.0002 µM
- IC50 ([3]; NCI-N87, single agent, read-out: Paclitaxel IC50): 0.004 µM
- IC50 (T47D cells; paclitaxel in combination with AN446, read-out: Paclitaxel com IC50): 0.0028 ± 0.0001 µM
- IC50 (T47D cells; paclitaxel in combination with SAHA, read-out: Paclitaxel com IC50): 0.0023 ± 1e-05 µM
- IC50 (T47D cells; paclitaxel in combination with valproic acid, read-out: Paclitaxel com IC50): 0.0036 ± 0.0001 µM
- IC50 (T47D cells; single agent, read-out: Paclitaxel IC50): 0.0032 ± 0.0001 µM

SMILES: O=C(CCCCCCC(=O)Nc1ccccc1)NO [SAHA, suberanilohydroxamic acid]
- IC50 (T47D cells; in combination with Dox, read-out: com IC50): 0.13 µM
- TLR4 expression in MDA-231 cells (TLR4 [4]): no apparent effect on TLR4 expression

SMILES: CCCC(CCC)C(=O)O [Valproic acid, valproic acid]
- IC50 (MDA-231 cells; MDA-MB-231, MDA-231, in combination with paclitaxel, read-out: com IC50): 1600 ± 10 µM
- IC50 (MDA-231 cells; MDA-MB-231, MDA-231, single agent, Table 3, read-out: IC50): 3900 ± 200 µM
- CI (combination index with paclitaxel) (MDA-231 cells; MDA-231): 0.8
- CI (combination index with paclitaxel) (T47D cells): 1.1
- IC50 (T47D cells; in combination with paclitaxel, read-out: com IC50): 1800 ± 100 µM
- IC50 (T47D cells; single agent, Table 3, read-out: IC50): 4400 ± 300 µM
- IC50 (U251 cells): 3000 µM

SMILES: Nc1ccccc1NC(=O)c1ccc(CNC(=O)OCc2cccnc2)cc1 [entinostat]
- IC50 (U251 cells): 2 µM
- TLR4 expression in MDA-231 cells (TLR4 [4]): no apparent effect on TLR4 expression

SMILES: C/C=C1\NC(=O)[C@H]2CSSCC/C=C/[C@H](CC(=O)N[C@H](C(C)C)C(=O)N2)OC(=O)[C@H](C(C)C)NC1=O [romidepsin]
- IC50 (U251 cells): 0.001 µM
